Assay results from article PMC6773697, “Antileukemic activity of novel adenosine derivatives” (Scientific Reports, 2019).

Key:
Format in all cases: cell-based, human
MOLT-4 cells [1] = assay: Cell cycle analysis by flow cytometry, MOLT-4; conditions: 80 nM, +VE-821 = 1 h preincubation
Protocol: Cellular DNA content was quantified by flow cytometry. Cells were treated with drugs for 2, 24, and 48 h. For experiments with inhibitors, cells were subjected to 1 h preincubation with VE-821. CLA, CLA-FMOR, CLA-FPIP, or CLA-FPIR was added, and incubation continued for the indicated times under the same conditions. After incubation was completed, cells were collected, washed twice with PBS, and fixed in 70% ethanol. After ethanol fixation (at least 24 h at 4 °C), cells were washed in PBS and centrifuged at 7,000 × g for 10 min at 4 °C. Pelleted cells were stained by adding 300 µL PBS containing PI and RNase at final concentrations of 75 µM and 20 µg/mL, respectively. This was followed by 1 h incubation in total darkness at 37 °C. Stained cells were analyzed using a flow cytometer (Becton Dickinson, San Jose, CA, USA). The cell populations at specific phases of the cell cycle were quantified from a standard count of 10,000 cells using FlowJo cytology software (Ashland, OR, USA)[39],[40].

MOLT-4 cells [2] = assay: Alkaline comet assay, MOLT-4; conditions: MOLT-4, 48 h, 80 nM
Protocol: Single cell gel electrophoresis (comet assay) was used to detect alkali labile sites, single and double DNA strand breaks, and cross-links induced by genotoxic agents. After electrophoresis and gel staining with 4,6-diamidino-2-phenylindole (DAPI), the released DNA was visible under a fluorescence microscope as a characteristic comet tail. The cells were plated on 24-well plates (20,000 cells/mL) and treated with CLA, CLA-FMOR, CLA-FPIP, or CLA-FPIR at the indicated concentrations for 2, 24, and 48 h at 37 °C. Some cells were preincubated with an ATR kinase inhibitor (VE-821) for 1 h at 37 °C before adding the tested compounds. Next, cells were collected into Eppendorf tubes and rinsed with PBS. Then, cells were suspended in 0.75% low melting point (LMP) agarose dissolved in PBS (pH 7.4) and placed on microscope slides precoated with 0.5% normal melting point (NMP) agarose. […] The slides were stored in a wet chamber at 4 °C and analyzed under a fluorescence microscope. Fifty randomly selected cells from each slide were measured using image analysis (Nikon, Japan) attached to a COHU 4910 video camera, which was equipped with a UV-1 filter block consisting of an excitation filter (359 nm) and a barrier filter (461 nm) connected to the image analysis system Lucia-Comet v. […] In the samples preincubated with VE-821, the level of DNA damage associated with the ATR kinase was determined.

dCK in MOLT-4 cells = assay: Deoxycytidine kinase activity, MOLT-4; conditions: MOLT-4, 24 h incubation
Protocol: Deoxycytidine kinase activity was measured in accordance with the manufacturer’s protocol. The cells, at final concentration were plated at 1 × 10^6 cells per 24-well plates and cultured with the tested compounds for 24 h. Some cells were preincubated with an ATR kinase inhibitor (VE-821) for 1 h at 37 °C before adding the tested compounds. After drug treatment, the cells were washed with PBS and resuspended in an ice-cold cytosol extraction buffer containing 1 mM phenylmethylsulfonyl fluoride (PMSF) and a protease inhibitor cocktail. The cell lysate was centrifuged at 10,000 × g for 30 min at 4 °C. The protein concentration was determined using the Bradford method. The supernatant (cytosolic fraction) was collected and stored at −80 °C. The clarified cytoplasm extracts, dCK standards, and blank control were added to the appropriate microtiter plate wells with a biotin-conjugated polyclonal antibody prepared specifically for dCK. Avidin conjugated to horseradish peroxidase (HRP) was added to each microplate well and incubated. Then, a TMB substrate solution was added to the plate. […] The enzyme-substrate reaction was terminated by addition of a sulfuric acid solution. The color change was measured spectrophotometrically at a wavelength of 450 nm using a microplate reader (BioTek).

OC[C@H]1O[C@@H](n2cnc3c(N=CN4CCOCC4)nc(Cl)nc32)C[C@@H]1O [CLA-FMOR, [6-deamino-6-(N′, N′-3′-oxa-1′, 5′-pentamethyleneformamidine)] cladribine]
MOLT-4 (48h) S, percentage share of cell cycle phase (MOLT-4 cells [1]): 46% | DNA fragmentation, percentage of the DNA in the comet tail (MOLT-4 cells [2]): 27% | dCK activity (dCK in MOLT-4 cells): highest dCK activity
